The values below come from ChEMBL document CHEMBL4392847, “Inhibition of pre-miRNA-136 processing by Dicer with small molecule BzDANP suggested the formation of ternary complex of pre-miR-136-BzDANP-Dicer” (Bioorg Med Chem, 2019).

Assay [1] has as its system pre-microRNA 136. The assay is described as follows: Binding affinity to pre-miR-136 RNA (unknown origin) at 0.063 to 1 uM by SPR assay. The format is nucleic-acid assay. Background: In SPR one partner is held on a chip, and binding of the other changes the refractive index at the surface.
The nature of assay [2]: Binding affinity to pre-miR-136 RNA delta-C-bulge mutant (unknown origin) at 0.063 to 1 uM by SPR assay.
Assay [3] can be described thus: Binding affinity to pre-miR-136 RNA hairpin mutant (unknown origin) at 0.063 to 1 uM by SPR assay.
A short description of assay [4]: Binding affinity to pre-miR-136 RNA delta-internal loop mutant (unknown origin) at 0.063 to 1 uM by SPR assay.
Assay [5] in a line: Binding affinity to pre-miR-136 RNA delta-internal loop mutant (unknown origin) assessed as normalized equilibrium binding response (Req) value at 1 uM by SPR assay relative to control.
Assay [6] in a line: Binding affinity to pre-miR-136 RNA delta-C-bulge mutant (unknown origin) assessed as normalized equilibrium binding response (Req) value at 1 uM by SPR assay relative to control.
The test system of assay [7] is pre-microRNA 136. The assay is described as follows: Binding affinity to hairpin loop site of pre-miR-136 RNA (unknown origin) at RNA to compound molar ratio of 1:0 by NMR titration assay. The format is nucleic-acid assay.
Assay [8] in a line: Binding affinity to pre-miR-136 RNA hairpin mutant (unknown origin) at <0.5 uM by SPR assay.
Assay [9] concerns pre-microRNA 136. As to the kind of experiment: Binding affinity to pre-miR-136 RNA (unknown origin) assessed as reduction in Km(app) for human recombinant Dicer-mediated substrate cleavage at 100 uM incubated for 30 mins using 32P-labeled RNA by denaturing polyacrylamide gel electrophoresis method. It is filed as nucleic-acid assay.
Assay [10] concerns pre-microRNA 136. As to the kind of experiment: Binding affinity to pre-miR-136 RNA (unknown origin) assessed as reduction in human recombinant Dicer-mediated substrate cleavage incubated for 30 mins using 32P-labeled RNA by denaturing polyacrylamide gel electrophoresis method. The format is nucleic-acid assay.
Assay [11] in a line: Binding affinity to pre-miR-136 RNA delta-internal loop mutant (unknown origin) assessed as reduction in human recombinant Dicer-mediated substrate cleavage by measuring cleavage efficiency at 200 uM incubated for 30 mins using 32P-labeled RNA by denaturing polyacrylamide gel electrophoresis method (reference value: 94.5 +/- 1.4%). Details: scale not given: the % may be the effect or the level left.

Assay [12] is described as follows: Binding affinity to pre-miR-136 RNA delta-C-bulge mutant (unknown origin) at <0.5 uM by SPR assay.
Assay [13] concerns pre-microRNA 136. The assay is described as follows: Binding affinity to internal loop site of pre-miR-136 RNA (unknown origin) at RNA to compound molar ratio of 1:0 by NMR titration assay. The format is nucleic-acid assay.
For assay [14], the system named is pre-microRNA 136. The assay is described as follows: Binding affinity to pre-miR-136 RNA (unknown origin) assessed as reduction in human recombinant Dicer-mediated substrate cleavage by measuring cleavage efficiency at 200 uM incubated for 30 mins using 32P-labeled RNA by denaturing polyacrylamide gel electrophoresis method (reference value: 94.3 +/- 2.3%). Details: scale not given: the % may be the effect or the level left. It is filed as nucleic-acid assay.

Assay [15] can be described thus: Binding affinity to pre-miR-136 RNA delta-C-bulge mutant (unknown origin) assessed as reduction in human recombinant Dicer-mediated substrate cleavage by measuring cleavage efficiency at 200 uM incubated for 30 mins using 32P-labeled RNA by denaturing polyacrylamide gel electrophoresis method (reference value: 89.1 +/- 2.3%). Details: scale not given: the % may be the effect or the level left.

Assay [16] relates to pre-microRNA 136. As to the kind of experiment: Binding affinity to pre-miR-136 RNA (unknown origin) assessed as normalized equilibrium binding response (Req) value at 1 uM by SPR assay relative to control. It is filed as nucleic-acid assay.
In assay [17] the test system is pre-microRNA 136. The assay is described as follows: Binding affinity to C-bulge site of pre-miR-136 RNA (unknown origin) at RNA to compound molar ratio of 1:0 by NMR titration assay. It is filed as nucleic-acid assay.
The subject of assay [18] is pre-microRNA 136. The assay is described as follows: Binding affinity to pre-miR-136 RNA (unknown origin) at 63 nM by SPR assay. The format is nucleic-acid assay.
A short description of assay [19]: Binding affinity to pre-miR-136 RNA hairpin mutant (unknown origin) assessed as reduction in human recombinant Dicer-mediated substrate cleavage by measuring cleavage efficiency at 200 uM incubated for 30 mins using 32P-labeled RNA by denaturing polyacrylamide gel electrophoresis method (reference value: 59.1 +/- 2.4%). Details: scale not given: the % may be the effect or the level left.

Assay [20] concerns pre-microRNA 136. The assay is described as follows: Binding affinity to pre-miR-136 RNA (unknown origin) assessed as reduction in initial velocity of human recombinant Dicer-mediated substrate cleavage at 100 uM incubated for 30 mins using 32P-labeled RNA by denaturing polyacrylamide gel electrophoresis method. It is filed as nucleic-acid assay.
Assay [21] relates to pre-microRNA 136. The assay is described as follows: Binding affinity to pre-miR-136 RNA (unknown origin) assessed as reduction in Vmax(app) for human recombinant Dicer-mediated substrate cleavage at 100 uM incubated for 30 mins using 32P-labeled RNA by denaturing polyacrylamide gel electrophoresis method. It is filed as nucleic-acid assay.

By Kd is commonly meant the equilibrium constant for the complex coming apart. As usually defined, the Km is the concentration of substrate that gives half-maximal velocity.

Molecules are shown by their SMILES. Activity calls are given as the source filed them. The calls are words filed in the database; no cut-off is given here.

On to `Nc1ccc2ccc(N)nc2n1`, for which the Kd entry (in the assay on pre-microRNA 136 [1]; in assay [2]; in assay [3]; in assay [4]) was “Not Active” throughout.

With `NCCCNc1ccc2c(n1)nc(NCCCN)c1ccccc12`, the Kd at pre-microRNA 136 [1] (read-out: Kd) was 0.47 µM; in assay [2] (read-out: Kd), 3200 µM; in [3] (read-out: Kd), 65000 µM; in [4] (read-out: Kd), 0.45 µM. Also, the Activity in assay [5] is 4.73 RU; in assay [6] it was 1.73 RU; with pre-microRNA 136 [10] it was “Dose-dependent effect”; in assay [11] it was 80.6%; in the assay with pre-microRNA 136 [14] it was 71.9%; in assay [15], 80.5%. For the same compound, the Activity was 4.32 RU in the assay with pre-microRNA 136 [16] and 58.2% in assay [19]. The result (in the assay with pre-microRNA 136 [7]; in assay [8]; in assay [12]; in the assay on pre-microRNA 136 [13]) was inactive. Also, the Km in the assay with pre-microRNA 136 [9] is 0.0279 µM. Further, the outcome in the assay on pre-microRNA 136 [17], in the assay with pre-microRNA 136 [18] and with pre-microRNA 136 [20] was Active. Besides, the Vmax(app) with pre-microRNA 136 [21] came out at 0.38 nM/min.
